In BindingDB's records for doi:10.1021/acs.jmedchem.8b00705 (Zhejiang University, 2018):

Test: Inhibition of alpha-crystallin B R120G mutant (unknown origin)-induced intracellular protein aggregation expressed in human HeLa cells or HLE-B3 cells incubated for 6 to 8 hrs by fluorescence microscopy relative to untreated control

| SMILES | EC50 [nM] |
| --- | --- |
| C[C@H](CCCC(C)(C)O)[C@H]1CC[C@@]2(C)C3=C(CC[C@]12C)[C@@]1(C)CC[C@H](O)C(C)(C)[C@@H]1CC3 | 57 |
| C[C@H](CCCC(C)(C)O)[C@H]1CC[C@@]2(C)C3=CC[C@H]4C(C)(C)[C@@H](O)CC[C@]4(C)C3=CC[C@]12C | 64 |
| CC(C)=CCC[C@@H](C)[C@H]1CC[C@@]2(C)C3=C(CC[C@]12C)[C@@]1(C)CC[C@H](O)C(C)(C)[C@@H]1CC3 [LANOSTEROL] | 1420 |
| C[C@H](CCCC(C)(C)O)[C@H]1CC[C@H]2[C@@H]3CC=C4C[C@@H](O)CC[C@]4(C)[C@H]3CC[C@]12C [(1S,2R,5S,10S,11S,14R,15R)-14-[(2R)-6-hydroxy-6-methylheptan-2-yl]-2,15-dimethyltetracyclo[8.7.0.0^{2,7}.0^{11,15}]heptadec-7-en-5-ol] | 320 |

Now from value to compound:

| EC50 [nM] | SMILES |
| --- | --- |
| 106 | C[C@H](CCCC(C)(C)O)[C@H]1CC[C@@]2(C)C3=C(CC[C@]12C)[C@@]1(C)CCC(=O)C(C)(C)[C@@H]1CC3 |
| 18 | C[C@H](CCCC(C)(C)O)[C@H]1CC[C@@]2(C)C3=C(CC[C@]12C)[C@@]1(C)C[C@@H](F)[C@H](O)C(C)(C)[C@@H]1CC3 |
| 26 | C[C@H](CCCC(C)(C)O)[C@H]1CC[C@@]2(C)C3=C(CC[C@]12C)[C@@]1(C)C[C@@H](F)[C@@H](O)C(C)(C)[C@@H]1CC3 |
